From US7915268B2, “8-substituted 2-(benzimidazolyl)purine derivatives for immunosuppression” (Wyeth LLC, priority 2006, dated 2011)

Legend:
GVHD = conditions: in vivo; cited from earlier work
[1] = system: spontaneous autoimmune diabetes; conditions: NOD mouse; cited from earlier work
IFN-γ production = assay: IL-2-Induced IFN-γ Production in the Mouse; type: in vivo; conditions: oral dose at 30 mg/kg, BALB/c mice, serum IFN-γ
Description: IL-2-Induced IFN-γ Production in the Mouse
Administration of IL-2 leads to an increase in serum IFN-γ in the mouse due to NK secretion of the cytokine (Thornton S, Kuhn K A, Finkelman F D and Hirsch R. NK cells secrete high levels of IFN-γ in response to in vivo administration of IL-2. Eur J Immunol 2001 31:3355-3360). The experiment is carried out essentially according to the protocol in Thornton et al. and the test compounds are administered in order to determine the level of inhibition attained. In summary, female BALB/c mice are fasted for 12-18 hours before a study but have free access to water at all times. Test compounds are administered by gavage one hour before intraperitoneal injection of IL-2 and capture antibody. At termination of the studies, the mice are sacrificed by carbon dioxide inhalation, terminal blood samples are collected by cardiac puncture and serum is generated. Serum is stored frozen until assayed for IFN-γ, as described by the kit manufacturer (BD Pharmingen™, San Diego, Calif.).

Jak3 = target: T1, Jak3 (Homo sapiens, UniProt P52333); assay: Jak3 Kinase Assay (HTRF, GST-Jak3 catalytic domain); type: biochemical; conditions: 1 μM ATP, 60-min incubation, read-out: Jak 3 (Converted)
T1 construct: catalytic domain of Jak3 (508aa to 1124aa); made in house; host or cells: Sf9 insect cells (baculovirus, pFastBac 1)
T1 sequence (P52333 508-1124): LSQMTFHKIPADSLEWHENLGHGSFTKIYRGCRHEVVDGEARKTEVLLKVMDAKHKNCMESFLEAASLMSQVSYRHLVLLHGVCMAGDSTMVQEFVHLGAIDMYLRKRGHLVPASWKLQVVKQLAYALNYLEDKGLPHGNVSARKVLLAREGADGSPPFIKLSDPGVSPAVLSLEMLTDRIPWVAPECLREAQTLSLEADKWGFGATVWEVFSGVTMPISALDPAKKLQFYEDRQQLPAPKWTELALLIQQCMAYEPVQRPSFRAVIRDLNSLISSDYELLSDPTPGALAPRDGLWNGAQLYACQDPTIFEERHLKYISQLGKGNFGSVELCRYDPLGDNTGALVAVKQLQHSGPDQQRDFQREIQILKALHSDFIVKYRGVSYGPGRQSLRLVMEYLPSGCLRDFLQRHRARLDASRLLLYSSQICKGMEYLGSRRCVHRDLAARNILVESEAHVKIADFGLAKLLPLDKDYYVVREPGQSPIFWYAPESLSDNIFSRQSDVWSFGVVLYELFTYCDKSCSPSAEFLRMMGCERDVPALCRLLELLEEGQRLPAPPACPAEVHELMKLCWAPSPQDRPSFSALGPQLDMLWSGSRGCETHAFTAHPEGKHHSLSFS
Description: Human Jak3 cDNA was amplified by PCR. A fragment encoding the catalytic domain of Jak3 (508aa to 1124aa) was ligated with GST at 5′ end. This fused GST-Jak3 DNA fragment was cloned into the EcoRI site of the donor plasmid pFastBac 1 (Life Technologies #10359-016). The transformation, transposition, and transfection of insect cells (Sf9) were performed according to the manufacture's instructions. The cell lysate containing recombinant GST-Jak3 was used in the kinase assay. Anti-GST antibody (10 μg/ml, Sigma #G1417) was coated onto a 384-well plate at 4° C. overnight. Cell lysate containing GST-Jak3 (1:100 dilution) was added to the anti-GST coated plates, and GST-Jak3 was captured by immobilized anti-GST antibody. Testing compounds and substrate mix (50 mM HEPES, pH 7, 0.5 mM Na3VO4, 25 mM MgCl2, 1 mM DTT, 0.005% BSA, 1 μM ATP, and 4.5 μg/ml biotinyl poly-Glu, Ala, Tyr) were added to the plate to initiate the reaction. After a 60-min incubation, the reaction was stopped by 4 mM EDTA, and phosphorylation of biotinyl poly-Glu, Ala, Tyr was detected using 17 μg/ml Cy5-streptavidin (Amersham, #PA92005) and 2.7 μg/ml Europium-conjugated anti-phosphotyrosine antibody (PerkinElmer #AD0069) using homogeneous time-resolved fluorescence (HTRF) technology.

kidney transplantation = conditions: primate kidney transplantation; cited from earlier work
heart transplantation = conditions: murine heart transplantation; cited from earlier work

Row | SMILES | inhibit IFN-γ production (IFN-γ production) [%] | IC50 (Jak3) [nM] | other results
1 | COc1cc2ncnc(Nc3ccc(O)cc3)c2cc1OC [WHI-P131] |  |  | severity of GVHD (GVHD): attenuate the severity of GVHD; spontaneous autoimmune diabetes development [1]: prevent spontaneous autoimmune diabetes development
2 | N#Cc1ccc2ncn(-c3ncc4nc(-c5cncnc5)n([C@@H]5CCOc6c(F)cccc65)c4n3)c2c1 [Example 13, 3-(9-((R)-8-fluorochroman-4-yl)-8-(pyrimidin-5-yl)-9H-purin-2-yl)-3H-benzo[d]imidazole-5-carbonitrile] | 76 | < 100 | 
3 | C[C@@H]1CCN(C(=O)CC#N)C[C@@H]1N(C)c1ncnc2[nH]ccc12 [CP-690,550] |  |  | animal survival (kidney transplantation): prolong animal survival; animal survival (heart transplantation): prolong animal survival
4 | N#Cc1ccc2ncn(-c3ncc4nc(-c5cncnc5)n(C5CCOc6c(F)ccc(F)c65)c4n3)c2c1 (stereo not drawn) [Example 6] | 93 | < 100 | 
5 | Fc1ccc2ncn(-c3ncc4nc(-c5ncc[nH]5)n(C5CCOCC5)c4n3)c2c1 [Example 33, 2-(6-Fluoro-1H-benzo[d]imidazol-1-yl)-8-(1H-imidazol-2-yl)-9-(tetrahydro-2H-pyran-4-yl)-9H-purine] |  | 100 to 1000 | 
